Laboratory results from patent US20040014637A1, “Mechanism for the inactivation of insulin receptor and uses in the treatment of type II diabetes” (McGill University, priority 1998, published 2004).

What was measured:
insulin receptor = target: T1, insulin receptor (Rattus norvegicus, UniProt P15127); experiment: 125I-insulin binding after preincubating endosomes (ENs containing IR) with nucleotides; details: for 125I-insulin specific binding, WGA-purified endosomes / 125I-insulin specific binding, solubilized endosomes: preincubation 37° C. 15 min; for 125I-Insulin specific binding (%), Solubilized endosomes / 125I-Insulin specific binding (%), WGA-purified endosomes: Table 2, normalized to endosomes without nucleotide
T1 construct: from tissue; host or cells: rat liver; endosome (EN) and plasma membrane (PM) fractions
T1 sequence (P15127 27-759 limits assumed): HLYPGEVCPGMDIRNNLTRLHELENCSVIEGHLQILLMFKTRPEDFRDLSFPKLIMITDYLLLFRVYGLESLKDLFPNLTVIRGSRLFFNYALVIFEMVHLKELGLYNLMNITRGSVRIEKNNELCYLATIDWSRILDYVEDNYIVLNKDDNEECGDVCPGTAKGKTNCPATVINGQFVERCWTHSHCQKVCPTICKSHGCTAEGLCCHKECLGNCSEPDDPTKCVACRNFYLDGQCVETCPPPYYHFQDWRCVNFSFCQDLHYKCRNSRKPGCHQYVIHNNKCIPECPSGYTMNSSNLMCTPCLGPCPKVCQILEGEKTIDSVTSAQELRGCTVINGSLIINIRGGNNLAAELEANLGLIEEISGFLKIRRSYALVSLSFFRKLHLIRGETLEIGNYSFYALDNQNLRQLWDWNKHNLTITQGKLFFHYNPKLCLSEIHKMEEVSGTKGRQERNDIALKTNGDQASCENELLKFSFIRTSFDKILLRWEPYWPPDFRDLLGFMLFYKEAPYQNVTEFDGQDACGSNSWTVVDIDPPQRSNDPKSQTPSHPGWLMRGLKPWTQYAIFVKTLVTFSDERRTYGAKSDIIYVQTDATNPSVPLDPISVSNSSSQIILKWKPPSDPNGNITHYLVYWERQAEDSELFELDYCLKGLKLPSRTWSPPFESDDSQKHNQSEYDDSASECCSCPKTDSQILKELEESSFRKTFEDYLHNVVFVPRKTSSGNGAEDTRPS
T1 sequence (P15127 764-1383 limits assumed): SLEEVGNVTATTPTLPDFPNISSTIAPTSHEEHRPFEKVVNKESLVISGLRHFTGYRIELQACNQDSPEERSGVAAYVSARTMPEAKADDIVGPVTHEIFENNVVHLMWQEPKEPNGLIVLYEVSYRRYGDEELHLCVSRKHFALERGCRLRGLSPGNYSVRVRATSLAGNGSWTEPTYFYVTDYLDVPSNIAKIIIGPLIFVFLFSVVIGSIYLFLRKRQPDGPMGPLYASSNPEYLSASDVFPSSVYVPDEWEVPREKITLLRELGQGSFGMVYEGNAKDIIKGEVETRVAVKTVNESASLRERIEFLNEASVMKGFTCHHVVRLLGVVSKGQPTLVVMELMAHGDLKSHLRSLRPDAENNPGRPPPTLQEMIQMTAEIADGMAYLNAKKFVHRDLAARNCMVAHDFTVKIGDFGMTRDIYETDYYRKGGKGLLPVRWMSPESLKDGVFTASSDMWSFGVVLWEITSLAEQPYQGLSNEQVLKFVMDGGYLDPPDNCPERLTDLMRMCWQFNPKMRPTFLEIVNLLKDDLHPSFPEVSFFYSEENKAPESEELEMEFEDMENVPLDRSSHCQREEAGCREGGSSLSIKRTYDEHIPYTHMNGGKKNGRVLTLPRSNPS
Experimental: Rats were anaesthetized with ether and were injected via jugular vein with a dose (per 100 g body weight) of insulin (1.5 μg), or bpV(phen) (0.6 μmol), dissolved in 0.2 ml. phosphate buffered saline (pH 7.4) −0.1% BSA. […] Livers were rapidly excised, placed in ice-cold homogenizing buffer (50 mM HEPES (pH 7.4), 0.25 M sucrose, 1 mM PMSF, 1 MM MgCl2, 1 mM benzamidine) and minced before homogenization. […] These subcellular fractions have been characterized in detail both morphologically and biochemically.
After 10 min at room temperature, the reactions was terminated by spotting 50 μl aliquots on Whatman 3 MM filters.
In the present study we wished to assess whether other processes might be involved in reducing the association of intraendosomal insulin with its receptor. We examined the effect of incubating intact ENs containing IR with increasing concentrations of ATP on subsequently measured insulin and hGH binding in both solubilized and WGA-purified receptors.

[1] = target: T2, insulin receptor kinase (IRK) β-subunit (Rattus norvegicus, UniProt P15127); experiment: 2-D phosphoamino acid analysis of the IRK β-subunit; type: biochemical; details: ENs incubated with 1 or 5 mM γ-32P ATP, 15 min 37° C.
T2 construct: from tissue; host or cells: rat liver; endosome (EN) and plasma membrane (PM) fractions
T2 sequence (P15127 27-759 limits assumed): as the sequence (P15127 27-759 limits assumed) above
T2 sequence (P15127 764-1383 limits assumed): as the sequence (P15127 764-1383 limits assumed) above
Experimental: ENs containing IR were removed from the 0.6/1.0 M sucrose interface of the gradient used in endosomal purification, and diluted with 0.25 M sucrose to a final protein concentration of 50 μg/ml. A 30 ml aliquot was centrifuged at 200,000×gav for 40 mins prior to resuspending in 500 μl of cell-free system buffer (44 mM HEPES (pH 7.4), 0.55 M sucrose, 333 mM KCl, 11 mM NaCl, 11 mM MgCl2). Incubations were initiated by adding 500 μl of 10 mM Tricine buffer containing either 2 or 10 mM ATP at a specific activity of 0.5 mCi ^32P/mmol. After incubating for 15 min at 37° C. the reaction was stopped by adding an equal volume of ice-cold 20 mM HEPES, 0.25 M sucrose, 2 mM PMSF, 2 mM benzamidine, 4 mM Na orthovanadate and 80 mM Na fluoride. […]
Previous work has shown that serine/threonine phosphorylation of the β-subunit of the IRK results in an inhibition of IRK activity. We thus determined if incubating ENs containing IR with 5 mM ATP promotes the phosphorylation of IRK on serine and threonine residues. […]

Nc1ncnc2c1ncn2[C@@H]1O[C@H](COP(=O)(O)OP(=O)(O)OP(=O)(O)O)[C@@H](O)[C@H]1O [ATP, adenosine 5′triphosphate]
125I-insulin specific binding, WGA-purified endosomes (insulin receptor; ATP 0.1 mM, percent of control): 107.7 ± 1.5%
125I-insulin specific binding, solubilized endosomes (insulin receptor; ATP 0.1 mM, percent of control ENs without ATP): 103.6 ± 2.5%
125I-insulin specific binding, WGA-purified endosomes (insulin receptor; ATP 1 mM, percent of control): 123.9 ± 6.2%
125I-insulin specific binding, solubilized endosomes (insulin receptor; ATP 1 mM, percent of control): 90.9 ± 4.2%
125I-insulin specific binding, WGA-purified endosomes (insulin receptor; ATP 3 mM, percent of control): 99.3 ± 0.9%
125I-insulin specific binding, solubilized endosomes (insulin receptor; ATP 3 mM, percent of control): 96.7 ± 2.6%
125I-insulin specific binding, WGA-purified endosomes (insulin receptor; ATP 5 mM, percent of control): 52.1 ± 1.2%
125I-insulin specific binding, solubilized endosomes (insulin receptor; ATP 5 mM, percent of control): 84.2 ± 2.7%
125I-insulin specific binding, WGA-purified endosomes (insulin receptor; ATP 10 mM, percent of control): 8.4 ± 0.2%
125I-Insulin specific binding (%), Solubilized endosomes (insulin receptor; addition 0.1 mM, 37° C. 15 min): 103.4 ± 2.5%
125I-Insulin specific binding (%), WGA-purified endosomes (insulin receptor; addition 0.1 mM, 37° C. 15 min): 108.1 ± 2.0%
125I-Insulin specific binding (%), Solubilized endosomes (insulin receptor; addition 1 mM, 37° C. 15 min): 95.5 ± 14.2%
125I-Insulin specific binding (%), WGA-purified endosomes (insulin receptor; addition 1 mM, 37° C. 15 min): 92.2 ± 2.2%
125I-Insulin specific binding (%), Solubilized endosomes (insulin receptor; addition 10 mM at 4° C. (on ice)): 112.0 ± 3.3%
125I-Insulin specific binding (%), Solubilized endosomes (insulin receptor; addition 10 mM, 37° C. 15 min): 43.6 ± 6.3%
125I-Insulin specific binding (%), WGA-purified endosomes (insulin receptor; addition 10 mM, 37° C. 15 min): 25.2 ± 5.2%
32P phosphoserine in IRK β-subunit (FIG. 5) [1]: no detectable
